For one compound, inhibition results are on record in patent publication US12606595B2, “Regentide-041 and composition comprising Regentide-041 for improving skin condition” (NINEBIOPHARM CO., LTD., priority 2020, dated 2026).

This test addresses T1, Neutrophil Elastase (Homo sapiens, UniProt P08246).
T1 construct: purchased Enzo Life Science BML-AK497-001
T1 sequence (P08246 30-267): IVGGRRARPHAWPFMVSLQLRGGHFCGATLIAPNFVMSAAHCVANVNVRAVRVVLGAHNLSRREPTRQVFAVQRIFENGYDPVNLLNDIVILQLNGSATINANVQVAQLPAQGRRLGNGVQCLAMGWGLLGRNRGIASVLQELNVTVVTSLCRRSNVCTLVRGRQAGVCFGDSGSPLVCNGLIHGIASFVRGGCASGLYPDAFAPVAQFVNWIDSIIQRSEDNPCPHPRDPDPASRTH
In words: Elastase activity inhibitory ability, Neutrophil Elastase colorimetric method. Format: biochemical. Here is the method:
In order to confirm the elastase activity inhibitory ability of Regentide-041, it was measured using the Neutrophil Elastase colorimetric method (BML-AK497-001, Enzo Life Science, Pennsylvania, USA). Specifically, after an assay buffer and D.W. were diluted at 1:1, an elastase reagent and a substrate reagent were diluted to have final concentrations of 2.2 μU/μl and 100 μM, respectively. In addition, Regentide-041 was diluted to have final concentrations of 0.1, 1, 10, 50, 100, and 150 μM, respectively. A working solution was prepared by mixing the assay buffer, elastase reagent, and Regentide-041 diluent. […] of the working solution was put in each well of a 96-well plate and reacted at 37° C. for 5 minutes. Next, […] of the substrate reagent was put, and absorbance was measured for 15 minutes at absorbance 405 nm with a Microplate reader (Epoch 2 Microplate spectrophotometer. Biotek, Winooski, VT, USA).

Where a SMILES comes first, the peptide text is derived from it.

For `CC[C@H](C)[C@H](NC(=O)CNC(=O)CNC(=O)[C@H](CCCNC(=N)N)NC(=O)[C@@H]1CCCN1C(=O)[C@@H](NC(=O)[C@@H](N)CS)[C@@H](C)CC)C(=O)N[C@@H](CS)C(=O)N[C@@H](CC(C)C)C(=O)N[C@H](C(=O)N[C@@H](C)C(=O)N[C@@H](CC(C)C)C(N)=O)C(C)C` [Regentide-041, CIPRGGICLVAL-NH2] (H-CIPRGGICLVAL-NH2), at 150 µM the inhibition was 52.7 ± 1.2%.

One may read the inhibition as how much of the control response was suppressed. High values mean a strong effect, low ones a weak effect.
